The text below walks through data of article PMC11791039, “A split intein and split luciferase-coupled system for detecting protein-protein interactions” (Molecular Systems Biology, 2024).

The target in one assay is T1, BRD4/CRBN interaction (Homo sapiens, UniProt O60885+Q96SW2).
T1 construct: β10-IN (tNLuc β10 peptide + GP41-1 split intein N fragment) (N); V5; IC-β9 (GP41-1 split intein C fragment + tNLuc β9 peptide) (N); FLAG; expressed in transfected cells
As to the kind of experiment: SIMPL2 assay CRBN/BRD4 (PROTAC). The assay is classed as cell-based. The note with it: MG132 1 μM, ARV-825 3 h.

Assay [1] concerns the target T2, FRB/FKBP1A interaction (Homo sapiens, UniProt P42345+P62942). As to the kind of experiment: NanoBiT assay, rapamycin-mediated FRB/FKBP1A interaction. It counts as cell-based. As to conditions: 2 h, expt 1-4.
The target of assay [2] is T2, FRB/FKBP1A interaction. More on the design: method as in previous study. The note with it: replicates 1-4, ref previous study, cited from earlier work; for ELISA signal (Fig. EV1B): IN/IC format; for ELISA_CIC signal (Fig. EV1C): NIN/IC format. In general terms: ELISA stands for enzyme-linked immunosorbent assay.
Assay [3] deals with T2, FRB/FKBP1A interaction. As to the kind of experiment: SIMPL2 assay, rapamycin-mediated FRB/FKBP1A interaction. As to conditions: for SIMPL2 signal (Fig. EV1B): IN/IC format, replicates 1-4; for SIMPL2(%) (Fig. EV1C): NIN/IC format, replicates 1-3; for SIMPL2 signal (Fig. 1D source data): 2 h, expt 1-4.

Where “and” joins values, the source holds several entries; their conditions need not be identical. Equal values may be shown once. Read-outs that look alike come from different tables or passages of the source. Residues, ends and D or L forms follow the SMILES beside them. *: point of attachment. Cbz = O=C(OCc1ccccc1)*

T2 sequence (P42345 2012-2144 limits assumed): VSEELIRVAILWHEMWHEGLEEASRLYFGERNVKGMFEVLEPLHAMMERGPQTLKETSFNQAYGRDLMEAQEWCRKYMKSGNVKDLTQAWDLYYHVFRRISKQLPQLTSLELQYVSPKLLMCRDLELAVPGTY
T2 sequence (P62942 whole entry): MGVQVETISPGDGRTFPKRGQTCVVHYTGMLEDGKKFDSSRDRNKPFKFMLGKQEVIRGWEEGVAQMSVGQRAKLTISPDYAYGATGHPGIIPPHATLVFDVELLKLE
T1 sequence (Q96SW2 whole entry, the tested form may be a part): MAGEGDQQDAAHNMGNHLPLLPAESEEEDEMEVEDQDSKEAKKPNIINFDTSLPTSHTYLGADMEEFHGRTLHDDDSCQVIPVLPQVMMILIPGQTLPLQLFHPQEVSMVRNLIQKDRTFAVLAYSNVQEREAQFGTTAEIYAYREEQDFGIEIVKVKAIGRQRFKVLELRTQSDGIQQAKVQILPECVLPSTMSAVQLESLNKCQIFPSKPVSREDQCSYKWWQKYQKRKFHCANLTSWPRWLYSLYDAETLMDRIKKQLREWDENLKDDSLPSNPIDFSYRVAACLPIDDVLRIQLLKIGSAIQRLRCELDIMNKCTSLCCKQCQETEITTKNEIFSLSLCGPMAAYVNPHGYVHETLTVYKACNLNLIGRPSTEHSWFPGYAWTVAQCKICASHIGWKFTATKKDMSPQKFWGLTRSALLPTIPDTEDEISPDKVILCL
T1 sequence (Q16531 whole entry, further chain, the tested form may be a part): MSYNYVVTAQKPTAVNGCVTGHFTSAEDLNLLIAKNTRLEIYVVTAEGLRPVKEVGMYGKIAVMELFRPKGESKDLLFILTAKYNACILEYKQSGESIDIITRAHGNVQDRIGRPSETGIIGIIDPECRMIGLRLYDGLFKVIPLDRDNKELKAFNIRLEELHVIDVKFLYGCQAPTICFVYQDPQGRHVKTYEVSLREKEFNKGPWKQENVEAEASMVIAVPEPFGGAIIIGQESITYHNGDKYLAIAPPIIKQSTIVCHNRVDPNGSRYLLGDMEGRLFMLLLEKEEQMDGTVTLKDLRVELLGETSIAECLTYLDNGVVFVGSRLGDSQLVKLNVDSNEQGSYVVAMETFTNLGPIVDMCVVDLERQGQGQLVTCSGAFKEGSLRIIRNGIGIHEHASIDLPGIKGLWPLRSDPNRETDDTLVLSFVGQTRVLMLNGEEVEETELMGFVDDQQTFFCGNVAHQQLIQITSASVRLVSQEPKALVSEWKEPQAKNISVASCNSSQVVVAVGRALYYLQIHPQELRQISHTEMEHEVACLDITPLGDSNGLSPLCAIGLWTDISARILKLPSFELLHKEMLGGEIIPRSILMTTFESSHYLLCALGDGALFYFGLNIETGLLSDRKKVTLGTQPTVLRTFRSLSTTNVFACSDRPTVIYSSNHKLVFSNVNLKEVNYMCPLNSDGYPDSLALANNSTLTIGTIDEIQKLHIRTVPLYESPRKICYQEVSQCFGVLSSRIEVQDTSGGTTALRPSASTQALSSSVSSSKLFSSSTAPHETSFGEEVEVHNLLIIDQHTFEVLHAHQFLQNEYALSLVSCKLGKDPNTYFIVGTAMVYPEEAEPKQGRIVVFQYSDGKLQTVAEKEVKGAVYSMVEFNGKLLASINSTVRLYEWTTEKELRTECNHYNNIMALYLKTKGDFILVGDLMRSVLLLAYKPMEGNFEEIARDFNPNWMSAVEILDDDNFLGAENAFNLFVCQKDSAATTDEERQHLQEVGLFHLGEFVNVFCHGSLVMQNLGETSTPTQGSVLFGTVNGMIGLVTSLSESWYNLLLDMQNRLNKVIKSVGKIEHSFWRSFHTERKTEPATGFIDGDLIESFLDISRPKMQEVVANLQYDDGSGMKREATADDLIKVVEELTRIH

On to `CC(C)C[C@@H](C=O)NC(=O)[C@H](CC(C)C)NC(=O)[C@H](CC(C)C)NC(=O)OCc1ccccc1` [MG132] (Cbz-Leu-Leu-Leu-aldehyde), for which the “effect of MG132 co-treatment on ARV-825 SIMPL2 signals” value on BRD4/CRBN interaction is recorded as “profoundly enhanced”.
In the case of `CO[C@H]1C[C@@H]2CC[C@@H](C)[C@@](O)(O2)C(=O)C(=O)N2CCCC[C@H]2C(=O)O[C@H]([C@H](C)C[C@@H]2CC[C@@H](O)[C@H](OC)C2)CC(=O)[C@H](C)/C=C(\C)[C@@H](O)[C@@H](OC)C(=O)[C@H](C)C[C@H](C)/C=C/C=C/C=C/1C` [rapamycin, Rapamycin], the “NanoBiT signal (Fig. 1D source data)” value at FRB/FKBP1A interaction [1] (Rapa 0.004115 uM) is 43.0075 and 49.8338 and 39.8143 and 26.5473; on FRB/FKBP1A interaction [1] (Rapa 0.037037 uM), 98.7034 and 104.835 and 107.555 and 86.8025; at FRB/FKBP1A interaction [1] (Rapa 0.111111 uM) it was 98.0138 and 85.7365 and 105.867 and 81.894; on FRB/FKBP1A interaction [1] (Rapa 0.333333 uM), 102.818 and 83.4071 and 80.4272 and 114.561; on FRB/FKBP1A interaction [1] (Rapa 1 uM) it was 95.0191 and 104.766 and 93.7327 and 91.3484. Moreover, the “ELISA signal (Fig. EV1B)” value on FRB/FKBP1A interaction [2] (Rapa 0.316 nM) is 14.411 and 5.166 and 5.566 and 4.9879; on FRB/FKBP1A interaction [2] (Rapa 1 nM), 5.323 and 5.028 and 5.963 and 6.1023; at FRB/FKBP1A interaction [2] (Rapa 3.162 nM) it was 8.457 and 7.647 and 8.056 and 8.736; at FRB/FKBP1A interaction [2] (Rapa 10 nM), 15.9974 and 15.1146 and 16.574 and 16.0467; on FRB/FKBP1A interaction [2] (Rapa 31.623 nM) it was 37.8238 and 37.9493 and 40.1437 and 41.1072; at FRB/FKBP1A interaction [2] (Rapa 100 nM), 80.3098 and 67.0371 and 79.2492 and 77.5358. For the same compound, the “ELISA signal (Fig. EV1B)” value at FRB/FKBP1A interaction [2] (Rapa 316.228 nM) was 106.072 and 95.5962 and 92.0797 and 90.9967; at FRB/FKBP1A interaction [2] (Rapa 1000 nM), 102.194 and 105.027 and 90.2049 and 93.6363. Further, the “ELISA_CIC signal (Fig. EV1C)” value at FRB/FKBP1A interaction [2] (Rapa 0.3 nM) was 3.444 and 2.886 and 2.936 and 2.873; on FRB/FKBP1A interaction [2] (Rapa 1 nM) it was 3.091 and 2.372 and 3.062 and 3.035; on FRB/FKBP1A interaction [2] (Rapa 3 nM), 3.502 and 3.836 and 3.666 and 4.333; at FRB/FKBP1A interaction [2] (Rapa 10 nM) it was 6.943 and 6.073 and 6.559 and 6.143; on FRB/FKBP1A interaction [2] (Rapa 30 nM) it was 20.4969 and 16.4946 and 19.9923 and 21.7284; on FRB/FKBP1A interaction [2] (Rapa 100 nM), 72.9918 and 58.0659 and 78.6932 and 64.2948. For the same compound, the “ELISA_CIC signal (Fig. EV1C)” value at FRB/FKBP1A interaction [2] (Rapa 300 nM) was 105.102 and 112.879 and 88.9461; on FRB/FKBP1A interaction [2] (Rapa 1000 nM) it was 95.1776 and 93.559 and 93.0646 and 80.9326. Besides, the “SIMPL2 signal (Fig. EV1B)” value was 1.191 and 2.558 and 1.039 and 2.309 at FRB/FKBP1A interaction [3] (Rapa 0.0508 nM); 2.258 and 4.019 and 1.902 and 3.528 on FRB/FKBP1A interaction [3] (Rapa 0.152 nM); 5.806 and 9.209 and 5.031 and 7.8055 on FRB/FKBP1A interaction [3] (Rapa 0.457 nM); 16.8705 and 22.7506 and 15.2406 and 19.2387 on FRB/FKBP1A interaction [3] (Rapa 1.372 nM); 40.6804 and 51.3157 and 39.8638 and 45.1426 at FRB/FKBP1A interaction [3] (Rapa 4.115 nM); 89.8203 and 93.2241 and 91.2356 and 88.6383 on FRB/FKBP1A interaction [3] (Rapa 37.037 nM). For the same compound, the “SIMPL2 signal (Fig. EV1B)” value at FRB/FKBP1A interaction [3] (Rapa 111.111 nM) was 100.397 and 91.658 and 100.471 and 94.6121; on FRB/FKBP1A interaction [3] (Rapa 333.333 nM), 99.7113 and 97.9264 and 105.182 and 96.7419; at FRB/FKBP1A interaction [3] (Rapa 1000 nM), 92.6509 and 96.5256 and 102.635 and 100.443. Also, the “SIMPL2(%) (Fig. EV1C)” value at FRB/FKBP1A interaction [3] (Rapa 0.00188 nM) was 0.8086% (2×) and 0.8386%; on FRB/FKBP1A interaction [3] (Rapa 0.00565 nM) it was 0.599% and 0.6888% and 0.7487%; on FRB/FKBP1A interaction [3] (Rapa 0.0508 nM) it was 0.9284% and 1.198% and 0.7188%; at FRB/FKBP1A interaction [3] (Rapa 0.152 nM) it was 1.108% and 1.6472% and 0.8685%; on FRB/FKBP1A interaction [3] (Rapa 0.457 nM) it was 4.972% and 3.534% and 2.636%; at FRB/FKBP1A interaction [3] (Rapa 1.372 nM), 23.3303% and 15.2441% and 11.9197%. The “SIMPL2(%) (Fig. EV1C)” value is 44.1749% and 37.1968% and 29.3801% at FRB/FKBP1A interaction [3] (Rapa 4.115 nM); 91.9736% and 88.0503% and 89.0686% on FRB/FKBP1A interaction [3] (Rapa 37.037 nM); 100.449% and 91.6442% and 102.935% on FRB/FKBP1A interaction [3] (Rapa 111.111 nM); 113.267% and 99.5508% and 95.867% at FRB/FKBP1A interaction [3] (Rapa 333.333 nM); 95.5076% and 93.0518% and 96.2564% at FRB/FKBP1A interaction [3] (Rapa 1000 nM). Also, the “SIMPL2 signal (Fig. 1D source data)” value at FRB/FKBP1A interaction [3] (Rapa 0.004115 uM) was 47.8958 and 45.8282 and 46.7693 and 41.1245; on FRB/FKBP1A interaction [3] (Rapa 0.037037 uM), 84.8088 and 98.4637 and 120.48 and 94.9462; at FRB/FKBP1A interaction [3] (Rapa 0.111111 uM), 73.556 and 88.7889 and 90.3886 and 92.8218; on FRB/FKBP1A interaction [3] (Rapa 0.333333 uM), 97.7898 and 102.816 and 106.133 and 97.0409; on FRB/FKBP1A interaction [3] (Rapa 1 uM), 104.171 and 101.443 and 85.3933 and 107.112.
